Laboratory results taken from BindingDB's records for patent US20240352053 (Betta Pharmaceuticals, 2024).

Tests used:
Assay in all cases: Kinase Inhibition Assay
[1] = target: Insulin-like growth factor 1 receptor (Homo sapiens, UniProt P08069)
Procedure: (§1) Mobility shift assays were performed to determine the compound's inhibitory activity against EGFR delta19del/T790M/C797S, EGFR WT, and IGF1R kinases. The enzyme reaction scheme is as follows: 1. Prepare 1*kinase buffer as follows. Final 1* Kinase buffer concentration HEPES PH 7.5 (mM) 50 Brij-35 0.0150% DTT (mM) 2 Mgcl2, Mncl2 (mM) 10 2. Preparation of compound concentration gradient: The starting concentration of the test compound is 3000 nM or 100 nM, dilute it in the 384-source plate to a 100% DMSO solution of 100 times the final concentration, and use precision to dilute the compound 3 times to 10 concentrations. Use the Dispenser Echo 550 to transfer 250 nL of 100x the final concentration of compound to the destination plate OptiPlate-384F. 3. Prepare a kinase solution with 2.5 times the final concentration using 1x Kinase buffer. 4. Add 10 uL of 2.5 times the final concentration of kinase solution to the compound wells and positive control wells respectively; add 10 uL of 1x Kinase buffer to the negative control wells. 5. Centrifuge at 1000 rpm for 30 seconds, shake and mix the reaction plate and incubate at room temperature for 10 minutes. 6. Use 1x Kinase buffer to prepare a mixed solution of ATP and Kinase substrate at 5/3 times the final concentration. 7. Add 15 uL of a mixed solution of ATP and substrate at 5/3 times the final concentration to start the reaction. 8. Centrifuge the 384-well plate at 1000 rpm for 30 seconds, mix well by shaking, and incubate at room temperature for the corresponding time. 9. Add 30 uL of stop detection solution to stop the kinase reaction, centrifuge at 1000 rpm for 30 seconds, and shake to mix. 10. Use Caliper EZ Reader to read conversion rates. 11. Calculation formula

[2] = target: Epidermal growth factor receptor (Homo sapiens, UniProt P00533)
Procedure: as §1

[3] = target: T1, Epidermal growth factor receptor [1-18,20-1210,T790M,C797S] (Human, UniProt P00533, T790M/C797S)
T1 construct: 1-18,20-1210
Procedure: as §1

Insulin-like growth factor 1 receptor, sequence (P08069 31-736 limits assumed): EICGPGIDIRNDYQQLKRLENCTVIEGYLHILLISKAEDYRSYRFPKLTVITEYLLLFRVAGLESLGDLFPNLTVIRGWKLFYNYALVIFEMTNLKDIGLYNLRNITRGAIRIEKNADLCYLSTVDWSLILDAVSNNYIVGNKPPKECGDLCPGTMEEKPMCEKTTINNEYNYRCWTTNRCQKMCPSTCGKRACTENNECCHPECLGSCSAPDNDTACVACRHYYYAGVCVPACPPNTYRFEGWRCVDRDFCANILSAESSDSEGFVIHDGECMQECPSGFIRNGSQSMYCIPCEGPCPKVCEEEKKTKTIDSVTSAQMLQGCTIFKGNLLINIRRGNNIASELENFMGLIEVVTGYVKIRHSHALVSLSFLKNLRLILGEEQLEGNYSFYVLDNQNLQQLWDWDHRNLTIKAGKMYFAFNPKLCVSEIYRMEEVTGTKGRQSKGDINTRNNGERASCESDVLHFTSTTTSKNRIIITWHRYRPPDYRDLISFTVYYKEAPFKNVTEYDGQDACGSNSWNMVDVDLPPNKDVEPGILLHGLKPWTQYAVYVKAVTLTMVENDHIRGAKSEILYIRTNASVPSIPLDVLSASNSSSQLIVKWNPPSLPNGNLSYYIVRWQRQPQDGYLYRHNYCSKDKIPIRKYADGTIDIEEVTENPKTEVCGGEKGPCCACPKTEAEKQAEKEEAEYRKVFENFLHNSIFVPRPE
Insulin-like growth factor 1 receptor, sequence (P08069 741-1367 limits assumed): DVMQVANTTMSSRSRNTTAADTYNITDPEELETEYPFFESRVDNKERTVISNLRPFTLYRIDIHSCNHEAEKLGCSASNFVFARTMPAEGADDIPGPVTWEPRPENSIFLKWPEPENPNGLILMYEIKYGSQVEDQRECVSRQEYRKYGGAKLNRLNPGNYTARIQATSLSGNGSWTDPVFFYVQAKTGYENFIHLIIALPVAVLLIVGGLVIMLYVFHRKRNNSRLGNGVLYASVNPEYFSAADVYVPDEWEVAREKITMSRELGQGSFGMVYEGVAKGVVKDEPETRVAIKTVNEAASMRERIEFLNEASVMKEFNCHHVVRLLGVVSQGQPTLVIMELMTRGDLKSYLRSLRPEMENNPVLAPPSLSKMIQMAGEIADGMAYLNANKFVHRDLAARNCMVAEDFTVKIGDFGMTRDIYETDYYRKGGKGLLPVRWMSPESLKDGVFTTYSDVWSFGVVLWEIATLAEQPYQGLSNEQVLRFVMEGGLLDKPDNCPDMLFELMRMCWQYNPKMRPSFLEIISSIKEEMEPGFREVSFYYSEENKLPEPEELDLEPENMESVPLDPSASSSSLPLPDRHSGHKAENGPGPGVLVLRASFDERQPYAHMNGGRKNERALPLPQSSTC
Epidermal growth factor receptor, sequence (P00533 whole entry): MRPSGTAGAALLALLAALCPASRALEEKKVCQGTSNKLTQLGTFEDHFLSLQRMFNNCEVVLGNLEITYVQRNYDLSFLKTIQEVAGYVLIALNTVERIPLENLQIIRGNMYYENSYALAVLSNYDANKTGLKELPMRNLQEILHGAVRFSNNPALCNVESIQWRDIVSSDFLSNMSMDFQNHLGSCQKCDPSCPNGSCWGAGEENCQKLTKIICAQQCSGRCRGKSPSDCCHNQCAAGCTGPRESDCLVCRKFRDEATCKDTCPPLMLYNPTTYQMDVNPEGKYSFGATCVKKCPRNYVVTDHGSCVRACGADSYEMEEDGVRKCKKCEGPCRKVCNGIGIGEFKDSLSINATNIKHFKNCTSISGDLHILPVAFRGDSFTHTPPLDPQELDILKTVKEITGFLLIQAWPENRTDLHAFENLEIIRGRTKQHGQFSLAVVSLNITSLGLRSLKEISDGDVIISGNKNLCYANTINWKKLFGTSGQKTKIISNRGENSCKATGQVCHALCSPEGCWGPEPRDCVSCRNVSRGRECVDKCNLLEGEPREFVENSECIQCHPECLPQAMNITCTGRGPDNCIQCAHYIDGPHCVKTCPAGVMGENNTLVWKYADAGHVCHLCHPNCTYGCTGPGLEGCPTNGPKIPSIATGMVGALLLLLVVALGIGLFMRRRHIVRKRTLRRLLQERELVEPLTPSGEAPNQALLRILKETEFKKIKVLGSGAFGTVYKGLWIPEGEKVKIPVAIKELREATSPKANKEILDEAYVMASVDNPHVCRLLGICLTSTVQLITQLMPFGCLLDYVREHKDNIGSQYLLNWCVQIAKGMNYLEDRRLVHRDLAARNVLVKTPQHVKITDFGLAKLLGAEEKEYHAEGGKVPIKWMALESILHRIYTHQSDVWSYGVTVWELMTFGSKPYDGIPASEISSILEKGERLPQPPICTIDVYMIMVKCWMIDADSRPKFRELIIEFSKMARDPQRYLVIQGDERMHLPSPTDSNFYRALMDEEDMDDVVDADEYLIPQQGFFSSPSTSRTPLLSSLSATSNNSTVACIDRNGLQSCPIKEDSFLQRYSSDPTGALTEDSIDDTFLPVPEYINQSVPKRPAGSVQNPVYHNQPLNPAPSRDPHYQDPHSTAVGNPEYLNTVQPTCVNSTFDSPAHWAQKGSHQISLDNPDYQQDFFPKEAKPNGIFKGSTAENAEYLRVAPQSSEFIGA

SMILES	IC50 [1] [nM]	IC50 [2] [nM]	IC50 [3] [nM]
CCc1cc(Nc2ncc(Br)c(Nc3ccc4ncccc4c3P(C)(C)=O)n2)c(OC)cc1N1CCC(N2CCN(C)CC2)CC1 [US20240352053, Compound Control Example 1]	9.5	5.1	0.2
COc1cc(N2CCC(N3CCN(C)CC3)CC2)c(C)cc1Nc1ncc(Br)c(Nc2ccc3nc(C4CC4)ccc3c2P(C)(C)=O)n1 [US20240352053, Compound Formula I]	–	–	0.3
